Results from patent US11541059B2, “Heterocyclic compounds and uses thereof” (Infinity Pharmaceuticals, Inc., priority 2014, dated 2023).

Experiments:
[1] = system: CXCL12-induced pAKT in T-cells; assay: CXCL12-induced pAKT assay in T-cells; type: cell-based, human; details: FIG. 9
Description: There was a tight correlation between the EC50s observed in the CXCL12-induced pAKT assay and the T-cell migration assay.

[2] = system: CD11b+ myeloid cells in 4T1 tumors; assay: Immunohistochemistry of tumor immune infiltrates (CD11b, CD68), 4T1; type: in vivo, mouse; details: vs vehicle, day 13
Description: Immunohistochemistry was performed to determine the distribution of immune cells within the tumor. In particular, CD11b myeloid cells were examined, as were regulatory vs. effector T cells (CD3, CD4, CD8, FoxP3). Briefly, IHC for CD11b or CD68+ was performed as follows. CD11b antibodies were available from Abcam, clone I-70, Catalog #ab 8878. CD68 antibodies were available from Abcam, clone FA-11, catalog #ab 53444. Tissues were fixed in cold methanol, air-dried, and then stained using a Res IHC Omni-UltraMap HRP XT protocol.
Without being bound by a particular theory, the decrease in the pro-tumorigenic tumor associated myeloid cells can result in activation of cytotoxic T-cells and anti-tumor immunity. […] When the images were quantified as CD11b+ cells per total viable cells (FIG. 37E), a Student t-Test p-value of 0.0355 was obtained when comparing the Compound BB-treated cells to controls. When the images were quantified as CD11b+ stained area per total visible area (FIG. 37F), a Student t-Test p-value of 0.0441 was obtained when comparing the Compound BB-treated cells to controls. […] When the images were quantified as CD11b+ cells per total viable cells (FIG. 37G), a Student t-Test p-value of 0.0864 (d16) or 0.3967 (d22) was obtained when comparing the Compound BB-treated cells to controls. […]

CT26 tumors = assay: CT26 colon cancer allograft model; type: in vivo, mouse; details: FIG. 28
[3] = Target organ toxicity (TOT) study, 10 days oral; type: in vivo; details: rat
Description: A target organ toxicity (TOT) study was performed in rats. […] This study assessed clinical observations/mortality, body weights, clinical pathology, toxicokinetics, and histopathology of select tissues. The tissues studied were: Adrenal gland, Bone marrow (femur), Brain, Small Intestine (including GALT), Heart, Large Intestine, Kidney, Stomach, Liver, Pancreas, Spleen, Testis, and Thymus. Doses were selected based on repeat-dose tolerability study, PK and plasma protein binding, and cellular IC50s for PI3K isoforms. The doses selected were: high-dose: 50 mg/kg/day, expected to inhibit α, β, δ, and γ PI3K isoforms; Mid-high dose: 20 mg/kg/day, expected to inhibit β, δ, and γ PI3K isoforms; Mid-low dose: 7.5 mg/kg, expected to inhibit γ PI3K isoform only; and Low-dose: 1 mg/kg/day, expected to inhibit γ PI3K isoform only.

[4] = system: tumor cell inhibition of T cell proliferation; assay: Ex vivo T cell proliferation (CFSE) with CT26 tumor cells; type: in vivo, mouse; details: tumors from treated mice
Description: CT26 was an N-nitroso-N-methylurethane-(NNMU) induced, undifferentiated colon carcinoma cell line. It was cloned to generate the cell line designated CT26.WT (ATCC CRL-2638).
The duration of the study was 1 week under treatment. 5-6 week old female, Balb/c mice (Jackson Labs) implanted subcutaneously with 5×10^5 CT26 cells in 100 μl PBS. CT26 cells were cultured in RPMI supplemented with 10% FBS. Dosing commenced when tumors reached an average volume of 500-600 mm^3.
For group 3 (αPD-L1), the mice were dosed once, IP, 200 ug (200 uL from 1 mg/ml stock).
Mice were monitored daily for adverse clinical effects. Body weights and tumor luminescent were measured two times per week. At the end of the study, tumors were harvested and cut into 3 parts; one piece for CTL killing assay, one piece for CSFE proliferation assay and one piece (split into two) for OCT/FFPE.
Spleens from 3 vehicle treated tumor bearing mice were physically dissociated in T cell media and passed through a 70 micron filter. After red cell lysis, the cells were pooled, brought up in PBS and stained with CFSE (invitrogen). After washing, these cells were brought up in 20 ml T cell media. Half the cells received Dynal mouse activator beads (CD3/CD28 crosslinking at a 1:1 concentration). CD3/CD28 beads induce proliferation in splenocytes from tumor bearing mouse (data not shown). […]

## C[C@H](NC(=O)c1c(N)nn2cccnc12)c1cc2cccc(C#Cc3cnn(C)c3)c2c(=O)n1-c1ccccc1 [Compound BB]
[1]
  Inhibition of CXCL12-induced pAKT in T-cells: inhibited CXCL12-induced pAKT in T-cells more strongly than a PI3K-δ inhibitor
[2]
  CD11b+ myeloid cell staining in viable regions of 4T1 tumors: decrease in CD11b+ myeloid cell staining
CT26 tumors
  MDSC expansion after cyclophosphamide treatment: expansion is decreased
[3]; high dose animals (50 mg/kg/day)
  Decrease in body weights compared to vehicle: 5-8%
[3]; males ≥7.5 mg/kg/day, females 50 mg/kg/day
  Histopathology, thymus: minimal/mild lymphoid depletion
[3]; oral 10 days, any dose level
  Mortality and clinical signs: No mortality or clinical signs were observed
[3]; oral, 1, 7.5, 20, 50 mg/kg/day
  Tolerability, TOT study: well-tolerated for 10 days
[3]; primarily at doses ≥20 mg/kg/day
  Histopathology, spleen: minimal/mild lymphoid depletion of the marginal zone and periarteriolar lymphoid sheaths (PALS)
[4]
  Suppression of T cell proliferation by cells derived from CT26 tumors: can release the suppression
